Calls of active or inactive are those of the source. The rule behind the calls is not given here.
Key:
Assay type in all cases: functional
[1] = test system: Pseudomonas aeruginosa; assay: Antibacterial activity against Pseudomonas aeruginosa 71 clinical isolate assessed as growth inhibition at 1 mg/ml after 24 hr by NCCLS agar diffusion method
[2] = test system: Bacillus pumilus; assay: Antibacterial activity against Bacillus pumilus 11778 clinical isolate assessed as growth inhibition at 1 mg/ml after 24 hr by NCCLS agar diffusion method; conditions: for zone of inhibition at 1000 µg/mL: Bacillus pumilus, 11778, 24 h, read-out: DIZ
[3] = test system: Escherichia coli; assay: Antibacterial activity against Escherichia coli 319 clinical isolate assessed as growth inhibition at 1 mg/ml after 24 hr by NCCLS agar diffusion method; conditions: for zone of inhibition at 1000 µg/mL: Escherichia coli, 319, 24 h, read-out: DIZ
[4] = test system: Micrococcus luteus; assay: Antibacterial activity against Micrococcus luteus ATCC 9341 clinical isolate assessed as growth inhibition at 1 mg/ml after 24 hr by NCCLS agar diffusion method; conditions: for zone of inhibition at 1000 µg/mL: ATCC 9341, 24 h, read-out: DIZ
[5] = test system: Shigella dysenteriae; assay: Antibacterial activity against Shigella dysenteriae 15 clinical isolate assessed as growth inhibition at 1 mg/ml after 24 hr by NCCLS agar diffusion method
[6] = test system: Staphylococcus aureus; assay: Antibacterial activity against Staphylococcus aureus 29737 clinical isolate assessed as growth inhibition at 1 mg/ml after 24 hr by NCCLS agar diffusion method; conditions: for zone of inhibition at 1000 µg/mL: Staphylococcus aureus, 29737, 24 h, read-out: DIZ
[7] = test system: Klebsiella pneumoniae; assay: Antibacterial activity against Klebsiella pneumoniae J/I/4 clinical isolate assessed as growth inhibition at 1 mg/ml after 24 hr by NCCLS agar diffusion method
[8] = test system: Vibrio cholerae; assay: Antibacterial activity against Vibrio cholerae 759 clinical isolate assessed as growth inhibition at 1 mg/ml after 24 hr by NCCLS agar diffusion method

Row | Compound | growth inhibition (GI) [1] | zone of inhibition at 1000 µg/mL [2] [mm] | zone of inhibition at 1000 µg/mL [3] [mm] | growth inhibition (GI) [4] | zone of inhibition at 1000 µg/mL ([5]; Shigella dysenteriae, 15, 24 h, read-out: DIZ) [mm] | growth inhibition (GI) [6] | growth inhibition (GI) [7] | growth inhibition (GI) [8] | zone of inhibition at 1000 µg/mL ([1]; Pseudomonas aeruginosa, 71, 24 h, read-out: DIZ) [mm] | growth inhibition (GI) [2] | growth inhibition (GI) [3] | zone of inhibition at 1000 µg/mL [4] [mm] | growth inhibition (GI) [5] | zone of inhibition at 1000 µg/mL [6] [mm] | zone of inhibition at 1000 µg/mL ([7]; J/I/4, 24 h, read-out: DIZ) [mm] | zone of inhibition at 1000 µg/mL ([8]; Vibrio cholerae, 759, 24 h, read-out: DIZ) [mm]
1 | CCN(CC)c1ccc(C2(O)C(=O)c3ccccc3C2=O)cc1 | inactive | 7 | 9 | inactive | 7 | inactive | inactive | inactive | – | – | – | – | – | – | – | –
2 | Nc1ccc(C2(c3ccc(N)c(I)c3)C(=O)c3ccccc3C2=O)cc1I | – | – | – | – | – | – | inactive | inactive | 8 | inactive | inactive | 8 | inactive | 8 | – | –
3 | COc1cc(N)ccc1C1(O)C(=O)c2ccccc2C1=O | inactive | – | – | – | – | – | inactive | inactive | – | inactive | inactive | 8 | inactive | 7 | – | –
4 | COc1cc(C2(c3ccc(N)c(OC)c3)C(=O)c3ccccc3C2=O)ccc1N | inactive | 8 | – | inactive | – | inactive | – | – | – | – | inactive | – | inactive | – | 7 | 7
5 | Cc1cc(C2(c3cc(C)c(N)c(C)c3)C(=O)c3ccccc3C2=O)cc(C)c1N | inactive | 9 | – | inactive | – | inactive | inactive | inactive | – | – | inactive | – | inactive | – | – | –
6 | Cc1ccc(NC2(c3cc(C)c(C)cc3N)C(=O)c3ccccc3C2=O)cc1C | inactive | – | 7 | inactive | – | inactive | inactive | inactive | – | inactive | – | – | inactive | – | – | –
7 | Nc1ccc(C2(c3ccc(N)c([N+](=O)[O-])c3)C(=O)c3ccccc3C2=O)cc1[N+](=O)[O-] | inactive | – | – | inactive | – | – | inactive | inactive | – | inactive | inactive | – | inactive | 8 | – | –
8 | Nc1ccc(C2(O)C(=O)c3ccccc3C2=O)c2ncccc12 | inactive | – | 8 | inactive | – | inactive | inactive | inactive | – | inactive | – | – | inactive | – | – | –

Reference: ChEMBL document CHEMBL3045468, “I2 catalyzed FriedelCrafts alkylation reaction of substituted anilines with ninhydrin: formation of novel products and their antimicrobial evaluation” (2013)
